According to patent US12673022B2, “Drug delivery system using solution” (Kyoto University, priority 2018, dated 2026):

Test system: human DMD exon 45 knock-in/mouse Dmd exon 44 knock-out mouse tibialis anterior muscle
Experiment: Exon skipping efficiency in skeletal muscle (human DMD exon 45)
Type: in vivo
Conditions: Example 7; administration solution 3: 25 mM or 250 mM 6-phospho-D-gluconic acid or N-carbamyl-L-aspartic acid, 158 mM sodium chloride, hEx45 #1 and #23 gRNA/Cas9; 50 μL once, day 7; Dunnett's test; FIG. 11
Experimental: Cas9 protein (120 μg), hDMD Ex45 #1 gRNA (15 μg), hDMD Ex45 #23 gRNA (15 μg) and 10×PBS (25 μL) were mixed and a 500 mM compound stock solution was added, and then, 500 mM compound stock solution was added to the mixture so as to obtain final concentrations: […], […], 300 ng/μL hDMD Ex45 #23 gRNA, 158 mM sodium chloride, 25 mM or 250 mM compound and diluted with UltraPure DNase/RNase-Free Distilled Water up to a liquid volume of 250 μL and incubated at normal temperature for 15 minutes. The Cas9 protein herein was subjected to buffer replacement with 250 mM sodium chloride by use of Amicon® Ultra 2 mL Centrifugal Filters and then put in use […]
To the tibialis anterior muscle of each of 4 weeks-old male human DMD exon 45 knock-in/mouse Dmd exon 44 knock-out mice, administration solution 3 (50 μL) was administered once. […] Subsequently, a product with skipping was quantitatively measured by use of FastStart Universal Probe Master (Roche), the primers represented by SEQ ID Nos. 14 and 15 and the probe of sequence 16. The product without skipping was quantitatively measured by use of FastStart Universal Probe Master (Roche), the primers represented by SEQ ID Nos. 17 and 18 and the probe of sequence 19. Each of the PCR products was measured by use of ViiA7™ real time PCR system. […]

SMILES: NC(=O)N[C@@H](CC(=O)O)C(=O)O [N-Carbamyl-L-aspartic acid]
- Exon skipping activity (skipping efficiency %) compared to 250 mM GABA: statistically significant results compared to 250 mM GABA
